≈ marks a conversion by molar mass, not a printed value.
Tests used:
Type in all cases: functional
[1] = test system: Escherichia coli; test: Antibacterial activity against Escherichia coli ATCC 25922 by agar dilution method
[2] = test system: Haemophilus influenzae; test: Antibacterial activity against Haemophilus influenzae isolate 280 by agar dilution method
[3] = test system: Staphylococcus aureus; test: Antibacterial activity against methicillin-resistant Staphylococcus aureus by agar dilution method
[4] = test system: Staphylococcus aureus; test: Antibacterial activity against Staphylococcus aureus ATCC 25923 by agar dilution method in presence of human plasma; settings: ATCC 25923, Plasma
[5] = test system: Haemophilus influenzae; test: Antibacterial activity against Haemophilus influenzae isolate 283 by agar dilution method
[6] = test system: Enterococcus; test: Antibacterial activity against vancomycin-resistant Enterococcus by agar dilution method
[7] = test system: Haemophilus influenzae; test: Antibacterial activity against Haemophilus influenzae isolate 285 by agar dilution method
[8] = test system: Haemophilus influenzae; test: Antibacterial activity against Haemophilus influenzae isolate 282 by agar dilution method
[9] = test system: Moraxella catarrhalis; test: Antibacterial activity against Moraxella catarrhalis by agar dilution method
[10] = test system: Staphylococcus aureus; test: Antibacterial activity against methicillin-susceptible Staphylococcus aureus by agar dilution method
[11] = test system: Staphylococcus; test: Antibacterial activity against methicillin-sensitive coagulase-negative Staphylococcus by agar dilution method
[12] = test system: Staphylococcus aureus; test: Antibacterial activity against Staphylococcus aureus ATCC 25923 by agar dilution method
[13] = test system: Staphylococcus; test: Antibacterial activity against methicillin resistant coagulase-negative Staphylococcus by agar dilution method
[14] = test system: Haemophilus influenzae; test: Antibacterial activity against Haemophilus influenzae ATCC 49247 by agar dilution method
[15] = test system: Enterococcus; test: Antibacterial activity against vancomycin-sensitive Enterococcus by agar dilution method
[16] = test system: Streptococcus pneumoniae; test: Antibacterial activity against Streptococcus pneumoniae by agar dilution method

Row | SMILES | MIC [1] [µg/mL] | MIC [2] [µg/mL] | MIC [3] [µg/mL] | MIC [4] [µg/mL] | MIC [5] [µg/mL] | MIC [6] [µg/mL] | MIC [7] [µg/mL] | MIC [8] [µg/mL] | MIC [9] [µg/mL] | MIC [10] [µg/mL] | MIC [11] [µg/mL] | MIC [12] [µg/mL] | MIC [13] [µg/mL] | MIC [14] [µg/mL] | MIC [15] [µg/mL] | MIC [16] [µg/mL]
1 | Cc1cn(C[C@H]2CN(c3ccc(N4CCN(C(=O)/C=C/c5ccccc5)CC4)c(F)c3)C(=O)O2)nn1 | > 64 | > 64 | 8 (≈ 16.3 µM) | > 64 | > 64 | 8 (≈ 16.3 µM) | > 64 | > 64 | 64 (≈ 130 µM) | 16 (≈ 32.6 µM) | 8 (≈ 16.3 µM) | 16 (≈ 32.6 µM) | 8 (≈ 16.3 µM) | > 64 | 8 (≈ 16.3 µM) | 8 (≈ 16.3 µM)
2 | CCOC(=O)N1CCN(c2ccc(N3C[C@H](Cn4cc(C)nn4)OC3=O)cc2F)CC1 | > 64 | 64 (≈ 148 µM) | 1 (≈ 2.31 µM) | 32 | 64 (≈ 148 µM) | 1 (≈ 2.31 µM) | 64 (≈ 148 µM) | 64 (≈ 148 µM) | 16 (≈ 37 µM) | 1 (≈ 2.31 µM) | 1 (≈ 2.31 µM) | 1 (≈ 2.31 µM) | 1 (≈ 2.31 µM) | 64 (≈ 148 µM) | 1 (≈ 2.31 µM) | 4 (≈ 9.25 µM)
3 | Cc1cn(C[C@H]2CN(c3ccc(N4CCN(C(=O)C5CC5)CC4)c(F)c3)C(=O)O2)nn1 | > 64 | 32 (≈ 74.7 µM) | 2 (≈ 4.67 µM) | 16 | 32 (≈ 74.7 µM) | 1 (≈ 2.33 µM) | 32 (≈ 74.7 µM) | 32 (≈ 74.7 µM) | 16 (≈ 37.3 µM) | 2 (≈ 4.67 µM) | 1 (≈ 2.33 µM) | 2 (≈ 4.67 µM) | 1 (≈ 2.33 µM) | 32 (≈ 74.7 µM) | 1 (≈ 2.33 µM) | 2 (≈ 4.67 µM)
4 | Cc1cn(C[C@H]2CN(c3ccc(N4CCN(C(=O)C(Cl)(Cl)Cl)CC4)c(F)c3)C(=O)O2)nn1 | > 64 | > 64 | 1 (≈ 1.98 µM) | 16 | > 64 | 1 (≈ 1.98 µM) | > 64 | > 64 | 32 (≈ 63.3 µM) | 1 (≈ 1.98 µM) | 1 (≈ 1.98 µM) | 1 (≈ 1.98 µM) | 1 (≈ 1.98 µM) | > 64 | 1 (≈ 1.98 µM) | 4 (≈ 7.91 µM)
5 | Cc1cn(C[C@H]2CN(c3ccc(N4CCN(C(=O)C5CCC5)CC4)c(F)c3)C(=O)O2)nn1 | > 64 | 32 (≈ 72.3 µM) | 2 (≈ 4.52 µM) | 16 | 32 (≈ 72.3 µM) | 2 (≈ 4.52 µM) | 32 (≈ 72.3 µM) | 32 (≈ 72.3 µM) | 32 (≈ 72.3 µM) | 2 (≈ 4.52 µM) | 2 (≈ 4.52 µM) | 4 (≈ 9.04 µM) | 2 (≈ 4.52 µM) | 32 (≈ 72.3 µM) | 2 (≈ 4.52 µM) | 4 (≈ 9.04 µM)
6 | CCC(=O)N1CCN(c2ccc(N3C[C@H](Cn4cc(C)nn4)OC3=O)cc2F)CC1 | > 64 | 32 (≈ 76.8 µM) | 1 (≈ 2.4 µM) | 8 | 32 (≈ 76.8 µM) | 1 (≈ 2.4 µM) | 32 (≈ 76.8 µM) | 32 (≈ 76.8 µM) | 16 (≈ 38.4 µM) | 1 (≈ 2.4 µM) | 1 (≈ 2.4 µM) | 2 (≈ 4.8 µM) | 1 (≈ 2.4 µM) | 32 (≈ 76.8 µM) | 1 (≈ 2.4 µM) | 1 (≈ 2.4 µM)
7 | Cc1cn(C[C@H]2CN(c3ccc(N4CCN(C=O)CC4)c(F)c3)C(=O)O2)nn1 | > 64 | 64 (≈ 165 µM) | 1 (≈ 2.57 µM) | 8 | 64 (≈ 165 µM) | 1 (≈ 2.57 µM) | 64 (≈ 165 µM) | 64 (≈ 165 µM) | 8 (≈ 20.6 µM) | 1 (≈ 2.57 µM) | 1 (≈ 2.57 µM) | 2 (≈ 5.15 µM) | 1 (≈ 2.57 µM) | 64 (≈ 165 µM) | 1 (≈ 2.57 µM) | 1 (≈ 2.57 µM)
8 | Cc1cn(C[C@H]2CN(c3ccc(N4CCN(C(=O)CC5CC6CCC5C6)CC4)c(F)c3)C(=O)O2)nn1 (stereo partly drawn) | > 64 | > 64 | 4 (≈ 8.05 µM) | > 64 | > 64 | 2 (≈ 4.03 µM) | > 64 | > 64 | 64 (≈ 129 µM) | 2 (≈ 4.03 µM) | 2 (≈ 4.03 µM) | 4 (≈ 8.05 µM) | 2 (≈ 4.03 µM) | > 64 | 2 (≈ 4.03 µM) | 16 (≈ 32.2 µM)
9 | O=C1O[C@@H](Cn2ccnn2)CN1c1ccc(N2CCOCC2)c(F)c1 | > 64 | 32 (≈ 92.1 µM) | 0.5 (≈ 1.44 µM) | 1 | 32 (≈ 92.1 µM) | 1 (≈ 2.88 µM) | 32 (≈ 92.1 µM) | 32 (≈ 92.1 µM) | > 16 | 0.5 (≈ 1.44 µM) | 0.5 (≈ 1.44 µM) | 1 (≈ 2.88 µM) | 0.5 (≈ 1.44 µM) | 32 (≈ 92.1 µM) | 0.5 (≈ 1.44 µM) | 0.5 (≈ 1.44 µM)
10 | Cc1cn(C[C@H]2CN(c3ccc(N4CCN(C(=O)CC(C)C)CC4)c(F)c3)C(=O)O2)nn1 | > 64 | > 64 | 2 (≈ 4.5 µM) | 32 | > 64 | 4 (≈ 9 µM) | > 64 | > 64 | 32 (≈ 72 µM) | 2 (≈ 4.5 µM) | 2 (≈ 4.5 µM) | 4 (≈ 9 µM) | 2 (≈ 4.5 µM) | 64 (≈ 144 µM) | 2 (≈ 4.5 µM) | 4 (≈ 9 µM)
11 | Cc1cn(C[C@H]2CN(c3ccc(N4CCOCC4)c(F)c3)C(=O)O2)nn1 | > 64 | 64 (≈ 177 µM) | 0.5 (≈ 1.38 µM) | 4 | 64 (≈ 177 µM) | 1 (≈ 2.77 µM) | 64 (≈ 177 µM) | 64 (≈ 177 µM) | 8 (≈ 22.1 µM) | 1 (≈ 2.77 µM) | 1 (≈ 2.77 µM) | 2 (≈ 5.53 µM) | 1 (≈ 2.77 µM) | 64 (≈ 177 µM) | 1 (≈ 2.77 µM) | 1 (≈ 2.77 µM)
12 | CCSC(=O)N1CCN(c2ccc(N3C[C@H](Cn4cc(C)nn4)OC3=O)cc2F)CC1 | > 64 | > 64 | 1 (≈ 2.23 µM) | 64 | > 64 | 1 (≈ 2.23 µM) | > 64 | > 64 | 16 (≈ 35.7 µM) | 1 (≈ 2.23 µM) | 1 (≈ 2.23 µM) | 2 (≈ 4.46 µM) | 1 (≈ 2.23 µM) | > 64 | 1 (≈ 2.23 µM) | 2 (≈ 4.46 µM)
13 | Cc1cn(C[C@H]2CN(c3ccc(N4CCN(C(=O)C(C)C)CC4)c(F)c3)C(=O)O2)nn1 | > 64 | > 64 | 0.5 (≈ 1.16 µM) | 16 | > 64 | 0.5 (≈ 1.16 µM) | > 64 | > 64 | 16 (≈ 37.2 µM) | 1 (≈ 2.32 µM) | 0.5 (≈ 1.16 µM) | 1 (≈ 2.32 µM) | 0.5 (≈ 1.16 µM) | > 64 | 1 (≈ 2.32 µM) | 2 (≈ 4.65 µM)

Reference: ChEMBL document CHEMBL1153012, “Synthesis and antibacterial activity of novel 5-(4-methyl-1H-1,2,3-triazole) methyl oxazolidinones” (2009)
